In patent publication US20100048699A1, “CHEMICAL COMPOUNDS” (SYNGENTA CROP PROTECTION, INC., priority 2006, published 2010):

Key:
Myzus persicae [1] = assay: Myzus persicae (green peach aphid) sunflower leaf disc spray test; settings: foliar, 144 h, read-out: control of Myzus persicae
Myzus persicae [2] = assay: Myzus persicae (green peach aphid) pea seedling root uptake test; settings: 144 h, read-out: control of Myzus persicae
Tetranychus urticae = Tetranychus urticae (two-spotted spider mite) bean leaf disc spray test; settings: foliar, 192 h, read-out: control of Tetranychus urticae

SMILES | pest or weed control at 200 ppm (Myzus persicae [1]) [%] | pest or weed control at 24 ppm (Myzus persicae [2]) [%] | pest or weed control at 200 ppm (Tetranychus urticae) [%]
O=C(OCCNC(=S)NC1CCc2c(F)cccc21)c1ccc(F)cc1C(F)(F)F (stereo not shown) [Compound 11.034] | ≥ 80 | ≥ 80 | –
O=C(OCCNC(=S)NC1CCc2c(F)cccc21)c1cccc2c1OC(F)(F)O2 (stereo not shown) [Compound 11.031] | ≥ 80 | ≥ 80 | –
O=C(OCCNC(=S)NC1CCc2c(F)cccc21)c1cc(C(F)(F)F)ccc1F (stereo not shown) [Compound 11.052] | ≥ 80 | – | ≥ 80
Cc1c(C(=O)OCCNC(=S)NC2CCc3c(F)cccc32)ncn1C(C)(C)C (stereo not shown) [Compound 11.070] | ≥ 80 | ≥ 80 | ≥ 80
O=C(OCCNC(=S)NC1CCc2c(F)cccc21)c1ccc(Cl)c([N+](=O)[O-])c1 (stereo not shown) [Compound 11.058] | ≥ 80 | ≥ 80 | ≥ 80
COc1ccc(CC(=O)OCCNC(=S)NC2CCc3c(F)cccc32)cc1 (stereo not shown) [Compound 11.016] | ≥ 80 | ≥ 80 | ≥ 80
Cc1ccccc1CC(=O)OCCNC(=S)NC1CCc2c(F)cccc21 (stereo not shown) [Compound 11.060] | ≥ 80 | ≥ 80 | ≥ 80
COC(=O)OCCNC(=S)NC1CCc2c(F)cccc21 (stereo not shown) [Compound 3.038, carbonic acid 2-[3(4-fluoro-indan-1-yl)-thioureido]-ethyl methylester] | ≥ 80 | ≥ 80 | ≥ 80
O=C(Cc1cccc(C(F)(F)F)c1)OCCNC(=S)NC1CCc2c(F)cccc21 (stereo not shown) [Compound 11.065] | ≥ 80 | ≥ 80 | ≥ 80
O=C(OCc1ccccc1C(=O)OCCNC(=S)NC1CCc2c(F)cccc21)c1ccccc1 (stereo not shown) [Compound 11.041] | ≥ 80 | – | ≥ 80
O=C(NCCOC(=O)c1cnn(-c2ccccc2)c1C(F)(F)F)NC1CCc2c(F)cccc21 (stereo not shown) [Compound 11.059] | ≥ 80 | ≥ 80 | ≥ 80
O=C(OCCNC(=S)NC1CCc2c(F)cccc21)c1ccc(SC(F)(F)C(F)(F)F)cc1 (stereo not shown) [Compound 11.064] | ≥ 80 | – | ≥ 80
O=C(OCCNC(=S)NC1CCc2c(F)cccc21)c1cc(Cl)sc1Cl (stereo not shown) [Compound 11.068] | ≥ 80 | – | ≥ 80
O=C(OCCNC(=S)NC1CCc2c(F)cccc21)C1Cc2ccccc2O1 (stereo not shown) [Compound 11.055] | ≥ 80 | ≥ 80 | ≥ 80
O=C(Cc1ccc(F)cc1)OCCNC(=S)NC1CCc2c(F)cccc21 (stereo not shown) [Compound 11.063] | ≥ 80 | ≥ 80 | ≥ 80
Cc1cc(C(=O)OCCNC(=S)NC2CCc3c(F)cccc32)c(C(F)(F)F)o1 (stereo not shown) [Compound 11.044] | ≥ 80 | ≥ 80 | ≥ 80
O=C(OCCNC(=S)NC1CCc2c(F)cccc21)c1cc(F)ccc1F (stereo not shown) [Compound 11.013] | ≥ 80 | ≥ 80 | ≥ 80
O=C(Cc1ccc(Cl)cc1)OCCNC(=S)NC1CCc2c(F)cccc21 (stereo not shown) [Compound 11.018] | ≥ 80 | ≥ 80 | ≥ 80
CCC(Oc1ccccc1)C(=O)OCCNC(=S)NC1CCc2c(F)cccc21 (stereo not shown) [Compound 11.051] | ≥ 80 | ≥ 80 | ≥ 80
O=C(OCCNC(=S)NC1CCc2c(F)cccc21)N(c1ccccc1)c1ccccc1 (stereo not shown) [Compound 11.039] | ≥ 80 | – | –
O=C(OCCNC(=S)NC1CCc2c(F)cccc21)c1ccccc1Cl (stereo not shown) [Compound 11.012] | ≥ 80 | ≥ 80 | ≥ 80
Cc1nn(-c2ccccc2)nc1C(=O)OCCNC(=S)NC1CCc2c(F)cccc21 (stereo not shown) [Compound 11.072] | ≥ 80 | – | ≥ 80
O=C(OCCNC(=S)NC1CCc2c(F)cccc21)c1ccc(F)c(C(F)(F)F)c1 (stereo not shown) [Compound 11.035] | ≥ 80 | ≥ 80 | ≥ 80
O=C(OCCNC(=S)NC1CCc2c(F)cccc21)N1CCCCC1 (stereo not shown) [Compound 11.001] | ≥ 80 | – | ≥ 80
Cc1ccsc1C(=O)OCCNC(=S)NC1CCc2c(F)cccc21 (stereo not shown) [Compound 11.067] | ≥ 80 | – | ≥ 80

SMILES | pest or weed control at 200 ppm (Myzus persicae [1]) [%] | pest or weed control at 24 ppm (Myzus persicae [2]) [%] | pest or weed control at 200 ppm (Tetranychus urticae) [%]
Cc1ccc(-n2c(=O)cc(C(F)(F)F)n(C)c2=O)cc1C(=O)OCCNC(=S)NC1CCc2c(F)cccc21 (stereo not shown) [Compound 11.043] | ≥ 80 | – | ≥ 80
O=C(/C=C/c1ccccc1)OCCNC(=S)NC1CCc2c(F)cccc21 (stereo not shown) [Compound 11.006] | ≥ 80 | ≥ 80 | ≥ 80
O=C(Cc1ccccc1F)OCCNC(=S)NC1CCc2c(F)cccc21 (stereo not shown) [Compound 11.062] | ≥ 80 | ≥ 80 | ≥ 80
O=C(OCCNC(=S)NC1CCc2c(F)cccc21)c1ccc(C(F)(F)F)cc1 (stereo not shown) [Compound 11.024] | ≥ 80 | ≥ 80 | ≥ 80
O=C(OCCNC(=S)NC1CCc2c(F)cccc21)c1cncc(Br)c1 (stereo not shown) [Compound 11.049] | ≥ 80 | ≥ 80 | –
COc1ccc(C(=O)OCCNC(=S)NC2CCc3c(F)cccc32)cc1 (stereo not shown) [Compound 11.009] | ≥ 80 | ≥ 80 | ≥ 80
COc1ccccc1C(=O)OCCNC(=S)NC1CCc2c(F)cccc21 (stereo not shown) [Compound 11.007] | ≥ 80 | ≥ 80 | ≥ 80
Cc1c(S(=O)(=O)c2ccc(Cl)cc2)csc1C(=O)OCCNC(=S)NC1CCc2c(F)cccc21 (stereo not shown) [Compound 11.046] | ≥ 80 | – | ≥ 80
N#Cc1ccc(C(=O)OCCNC(=S)NC2CCc3c(F)cccc32)cc1 (stereo not shown) [Compound 11.005] | ≥ 80 | ≥ 80 | ≥ 80
O=C(OCCNC(=S)NC1CCc2c(F)cccc21)c1ccc(F)cc1F (stereo not shown) [Compound 11.014] | ≥ 80 | ≥ 80 | ≥ 80
C/C(=C\c1ccccc1)C(=O)OCCNC(=S)NC1CCc2c(F)cccc21 (stereo not shown) [Compound 11.053] | ≥ 80 | ≥ 80 | ≥ 80
O=C(OCCNC(=S)NC1CCc2c(F)cccc21)c1ccc(Cl)cc1 (stereo not shown) [Compound 11.010] | ≥ 80 | ≥ 80 | ≥ 80
O=C(/C=C/c1ccc([N+](=O)[O-])cc1)OCCNC(=S)NC1CCc2c(F)cccc21 (stereo not shown) [Compound 11.027] | ≥ 80 | – | –
O=C(/C=C/c1cccc(C(F)(F)F)c1)OCCNC(=S)NC1CCc2c(F)cccc21 (stereo not shown) [Compound 11.048] | ≥ 80 | ≥ 80 | ≥ 80
O=C(OCCNC(=S)NC1CCc2c(F)cccc21)c1ccccc1C(F)(F)F (stereo not shown) [Compound 11.023] | ≥ 80 | ≥ 80 | ≥ 80
O=C(OCCNC(=S)NC1CCc2c(F)cccc21)c1ccc(F)cc1 (stereo not shown) [Compound 11.003] | ≥ 80 | ≥ 80 | ≥ 80
Cc1oc(C(C)(C)C)cc1C(=O)OCCNC(=S)NC1CCc2c(F)cccc21 (stereo not shown) [Compound 11.045] | ≥ 80 | ≥ 80 | –
COc1cc(C(=O)OCCNC(=S)NC2CCc3c(F)cccc32)cc(Cl)n1 (stereo not shown) [Compound 11.047] | ≥ 80 | ≥ 80 | ≥ 80
CCCC(C(=O)OCCNC(=S)NC1CCc2c(F)cccc21)c1ccc(Cl)cc1Cl (stereo not shown) [Compound 11.040] | ≥ 80 | ≥ 80 | ≥ 80
COc1ccc(CC(=O)OCCNC(=S)NC2CCc3c(F)cccc32)cc1OC (stereo not shown) [Compound 11.028] | ≥ 80 | ≥ 80 | ≥ 80
O=C(OCCNC(=S)NC1CCc2c(F)cccc21)c1ccccc1I (stereo not shown) [Compound 11.054] | ≥ 80 | ≥ 80 | –
O=C(OCCNC(=S)NC1CCc2c(F)cccc21)c1cccc(Cl)c1 (stereo not shown) [Compound 11.011] | ≥ 80 | ≥ 80 | ≥ 80
CN(C)c1ccc(C(=O)OCCNC(=S)NC2CCc3c(F)cccc32)cc1 (stereo not shown) [Compound 11.015] | ≥ 80 | – | –
O=C(OCCNC(=S)NC1CCc2c(F)cccc21)OCc1ccc([N+](=O)[O-])cc1 (stereo not shown) [Compound 11.030] | ≥ 80 | ≥ 80 | ≥ 80
